Reference: patent US6887882B2, “Pharmaceutical compositions comprising chelidonine or derivatives thereof” (priority 2002, dated 2005)

Test system: rabbit atrial tissue
Test: Frequency-dependent effects on action potentials of rabbit atrial tissue (APD90)
Assay type: cell-based
Details: 1 μM, of control APD90, n=5
Method: Action potentials in rabbit atrial tissue were recorded according to the method described in thesis by Kwak, et al. (A newly synthesized benzopyran derivatives, activates the cardiac ATP-sensitive K^+ channel. J Pharmacol Exp Ther 1995, 275: 807-812).
Male New Zealand white rabbits weighing about 2 kg were stunned with a blow on the head and hearts were rapidly excised and transferred to a dissection bath filled with Tyrode's solution saturated with 97% O2 and 3% CO2 gas mixture and each dissected tissue was mounted horizontally in a narrow channel of a tissue chamber and continuously superfused with the Tyrode's solution at 37° C. The action potentials were elicited by stimulating the cardiac cells with square pulses (1˜5 Hz, 1-ms duration, 20-30% above threshold voltage) by a stimulator. […] Tracings on the oscilloscope screen were photographed on a 35-mm film and also recorded on a physiograph (RS 3400, Gould, Cleveland, Ohio). APD90 was used for the comparison of action potential durations. APD90 represents the action potential duration at 90% repolarization, relative to the action potential duration at maximum 100% depolarization. Images on the oscilloscope screen were captured on Polaroid camera.
We tested whether the effect of chelidonine on action potentials of rabbit atrial myocytes are frequency-dependent or not.
The relative action potential durations were normalized to the APD90 value in the absence of chelidonine at each frequency. At the stimulus frequency of 1, 2, 3, 4 and 5 Hz, 1 μM chelidonine increased APD90 by 13.0±8.1% (n=5), 14.5±7.9% (n=5), 16.5±2.2% (n=5) 28.2±0.4% (n=5) or 33.0±0.3 1% (n=5) of the control APD90 in the absence of chelidonine at each frequency, respectively.

Compound: CN1Cc2c(ccc3c2OCO3)[C@@H]2[C@H]1c1cc3c(cc1C[C@@H]2O)OCO3 [Compound 1, [5bR-(5bα,6β,12bα)]-5b,6,7,12b,13, 14-hexahydro-13-methyl[1,3]benzodioxolo[5,6c]-1,3-dioxolo[4,5-i]phenanthridin-6-ol]
- increase of APD90 (stimulus frequency 1 Hz): 13.0±8.1%
- increase of APD90 (stimulus frequency 2 Hz): 14.5±7.9%
- increase of APD90 (stimulus frequency 3 Hz): 16.5±2.2%
- increase of APD90 (stimulus frequency 4 Hz): 28.2±0.4%
